From patent US20050112728A1, “Adenosylmethionine synthetase from streptomyces sp gene sequences coding the same and method for mass production for secondary metabolites including antibiotics thereof” (priority 2001, published 2005)

B1: SAM-s: enzyme catalyzing SAM biosynthesis from Streptomyces spectabilis ATCC 27741, SEQ ID NO. 2 (protein)
chain: MSRRLFTSESVTEGHPDKIADQISDTILDALLREDPTSRVAVETLITTGLVHVAGEVTTKAYAPIAQLVREKILEIGYDSSKKGFDGASCGVSVSIGAQSPDIAQGVDTAYESRVEGDEDELDRQGAGDQGLMFGYACDETPELMPLPIHLAHRLSRRLSEVRKNGTIPYLRPDGKTQVTIEYDGDKAVRLDTVVVSSQHASDIDLESLLAPDIREFVVEPELKALVEDGIKLVVEPELKALVEDGIKLETEGYRLLVNPTGRFEIGGPMGDAGLTGRKIIIDTYGGMSRHGGGAFSGKDPSKVDRSAAYAMRWVAKNVVAAGLASRCEVQVAYAIGKAEPVGLFVETFGTNTIDTDKIEQAISEVFDLRPAAIIRSLDLLRPIYSQTAAYGHFGRSLPEFTWEKTDRVDALRKAAGLES
modifications: Steptomyces spectabilis ATCC 27741

Columns and labels:
S. spectabilis = assay: Effect of SAM on spectinomycin production (Exp. 9); assay type: cell-based; settings: 1 mM SAM, incubation for 5 days, 30° C.
Experimental: (§1) Each Streptomyces species was incubated in its corresponding culture medium according to Table 1, and treated with 1 mM of SAM (Sigma, USA). After incubation for 5 days, antibiotic concentration was measured in each culture medium.

S. aureofaciens [1] = assay: Effect of SAM on chlortetracycline production (Exp. 13); assay type: cell-based; settings: 1 mM SAM, incubation for 5 days
Experimental: as §1

S. lividans TK23 [2] = assay: Effect of externally added SAM on productivity of actinorhodin; assay type: cell-based, Streptomyces lividans; settings: wild type S. lividans TK23, 1 mM commercially available SAM, FIG. 5
Experimental: Based on the finding that in vivo over-expressed SAM positively affects production yield of actinorhodin in S. lividans TK23, an effect of SAM on productivity of actinorhodin was investigated when commercially available SAM is added directly to culture medium containing S. lividans TK23. As such, wild type S. lividans TK23 was treated with 1 mM of commercially available SAM.

S. avermitilis = assay: Effect of SAM on avermectin production (Exp. 7); assay type: cell-based; settings: 1 mM SAM, incubation for 5 days, 25° C.
Experimental: as §1

S. peucetius = assay: Effect of SAM on doxorubicin production (Exp. 10); assay type: cell-based; settings: 1 mM SAM, incubation for 5 days, 30° C.
Experimental: as §1

S. cinnamonensis = assay: Effect of SAM on monensin production (Exp. 8); assay type: cell-based; settings: 1 mM SAM, incubation for 5 days, 30° C.
Experimental: as §1

S. aureofaciens [3] = assay: Effect of SAM on tetracycline production (Exp. 12); assay type: cell-based; settings: 1 mM SAM, incubation for 5 days, 28° C.
Experimental: as §1

S. griseus = assay: Effect of SAM on streptomycin production (Exp. 11); assay type: cell-based; settings: 1 mM SAM, incubation for 5 days, 30° C.
Experimental: as §1

[4] = Assay for activity of SAM-s (HPLC analysis of reaction products); assay type: biochemical, Streptomyces spectabilis ATCC 27741; settings: protein expressed in E. coli, 5 mM ATP, 5 mM methionine, 120 min at 30° C.
Experimental: In order to analyze activity of “SAM-s”, the gene encoding “SAM-s” was expressed in E. coli, and the resulting translational product, “SAM-s”, was then isolated.
To express the gene encoding “SAM-s” in E. coli, the gene was inserted into a pET-21a vector, and then introduced into E. coli BL21. The expressed gene product, “SAM-s” was isolated using a His-Tag purification system. Thereafter, 10 to 50 μl of the enzyme solution containing the protein “SAM-s” was added to a reaction mixture containing 100 mM of Tris-HCl, 200 mM of KCl, 10 mM of MgCl2, 1 mM DTT, 5 mM ATP, and 5 mM methionine, followed by incubation for 120 min at 30° C. After the incubation, reaction products were analyzed through HPLC using Reverse C18 column. In this regard, the column loaded with sample was initially equilibrated with a solution of 0.1 M of NaH2PO4/acetonitrile at a ratio of 98:2 (V/V), pH 2.65. Then, a second solution comprising 0.15 M NaH2PO4/acetonitrile at a ratio of 74:26 (V/V) was applied with continuous mixing with the first solution, forming a concentration gradient.

S. lividans TK23 [5] = assay: Actinorhodin production in S. lividans TK23 transformed with pSAM-s; assay type: cell-based, Streptomyces lividans; settings: over-expression of SAM-s, incubation for 7 days at 28° C., FIG. 4
Experimental: The gene encoding “SAM-s” was first inserted into pWHM3, which is a shuttle vector between E. coli and Streptomyces species, giving an expression vector pSAM-s. The plasmid pSAM-s was then introduced into S. lividans TK23. The resulting transformant, Streptomyces lividans TK-23 harboring pSAM-s, was deposited in the Korean Culture Center of Microorganisms with accession No. KCCM 10397 on Jul. 2, 2002. The transformant was incubated in one liter of a medium including 50 g of glycerol, 5 g of glutamic acid, 21 g of morpholinopropane sulfonic acid, 200 mg of MgSO47H2O, 100 mg of CaCl22H2O, 100 mg NaCi, 82 mg KH2PO4, 9 mg FeSO47H2O, and 2 ml of trace element solution, adjusted to pH 6.5. During incubation for 7 days at 28° C., production yield of actinorhodin, which is a main antibiotic produced from S. lividans TK23, was analyzed.

| Molecule | Production amount of a treatment group, Spectinomycin (S. spectabilis) | Production amount of a treatment group, Chlortetracycline (S. aureofaciens [1]) | actinorhodin production versus control not treated with SAM (S. lividans TK23 [2]) | Production amount of a treatment group, Avermectin (S. avermitilis) | Production amount of a treatment group, Doxorubicin (S. peucetius) | Production amount of a treatment group, Monensin (S. cinnamonensis) | Production amount of a treatment group, Tetracycline (S. aureofaciens [3]) | Production amount of a treatment group, Streptomycin (S. griseus) | activity to synthesize SAM [4] | production of actinorhodin in the transformant in comparison with wild type S. lividans (S. lividans TK23 [5]) |
| --- | --- | --- | --- | --- | --- | --- | --- | --- | --- | --- |
| C[S+](CC[C@H](N)C(=O)O)C[C@H]1O[C@@H](n2cnc3c(N)ncnc32)[C@H](O)[C@@H]1O (stereo partly drawn) [SAM, S-adenosyl-L-methionine] | 35 µg/mL | 130 µg/mL | produces more actinorhodin | 25 µg/mL | 300 µg/mL | 180 µg/mL | 188 µg/mL | 602 µg/mL |  |  |
| B1 |  |  |  |  |  |  |  |  | has an activity to synthesize SAM | over six times |
